From patent US20230027929A1, “MrgprX2 Antagonists and Uses Thereof” (Dermira, Inc., priority 2019, published 2023) come the findings set out here.

The target of this assay is T1, hMrgpMRGPRX2 (Homo sapiens, UniProt Q96LB1).
T1 construct: expressed in transfected cells
T1 sequence (Q96LB1 1-330): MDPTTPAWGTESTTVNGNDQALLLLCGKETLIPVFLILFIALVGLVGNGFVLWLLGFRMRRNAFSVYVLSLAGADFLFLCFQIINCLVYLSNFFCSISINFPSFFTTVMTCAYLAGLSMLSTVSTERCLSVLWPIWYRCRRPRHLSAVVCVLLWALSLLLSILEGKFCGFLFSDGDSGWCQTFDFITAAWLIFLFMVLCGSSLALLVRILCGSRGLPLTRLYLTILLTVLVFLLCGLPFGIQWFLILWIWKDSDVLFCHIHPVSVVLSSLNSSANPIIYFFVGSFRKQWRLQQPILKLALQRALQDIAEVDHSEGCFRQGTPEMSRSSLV
Put plainly: FLIPR intracellular calcium mobilization, antagonist activity in recombinant hMrgpMRGPRX2 expressing cells. It is filed as cell-based. The following applies: read-out: Human MrgprX2 Antagonist pIC50 (converted). An excerpt:
Potent and selective hMrgpMRGPRX2 compounds have been generated from compounds identified during a high throughput screening (HTS) campaign and followed up with cycles of structure activity based medicinal chemistry efforts. These compounds were characterized in recombinant hMrgpMRGPRX2 expressing cells for their antagonist activity and the potency was confirmed in the human mast cell line LAD-2, where the target is endogenously expressed. The assays used to determine potencies are functional read-out looking at intracellular calcium mobilization using the FLIPR™ technology. In these FLIPR assays, we test the identified compounds using recombinant cellular systems expressing mouse MrgprB2, mouse MrgprA1, gerbil MrgpMRGPRX2 orthologue, Chinese hamster MrgpMRGPRX2 orthologue and cynomolgus monkey MrgpMRGPRX2 orthologue, respectively for orthologue activity.
(Calcium assays in cells follow changes in intracellular calcium, usually with a dye or a luminescent sensor.)
Take `Cn1cc(-c2ccc(NC(=O)C3C(C)(C)C3(C)C)nc2)cn1` [Compound E185]: the IC50 is 93.3 nM. Consider `CCN(C[C@@H](O)C(F)(F)F)C(=O)Nc1cc(Oc2cccc(C#N)c2)ccn1` [Compound E156], for which the IC50 was 1550 nM. As for `CC1(C)C(C(=O)Nc2ccc(-c3ccno3)cn2)C1(C)C` [Compound E274, N-(5-isoxazol-5-yl-2-pyridyl)-2,2,3,3-tetramethyl-cyclopropanecarboxamide], the figure is 20.4 nM; as for `Cn1ncc(-c2ccc(NC(=O)C3C(C)(C)C3(C)C)nc2)n1` [Compound E189, 2,2,3,3-tetramethyl-N-[5-(2-methyltriazol-4-yl)-2-pyridyl]cyclopropanecarboxamide], 1170 nM; as for `CCN(C[C@@H](O)C(F)(F)F)C(=O)Nc1cc(Oc2ccc(F)c(F)c2)ccn1` [Compound E150, 3-[4-(3,4-difluorophenoxy)-2-pyridyl]-1-ethyl-1-[(2R)-3,3,3-trifluoro-2-hydroxy-propyl]urea], 3.47 nM. As for `CC(C)(C#N)C(=O)Nc1ccc(Oc2cccc(F)c2)cn1` [Compound E001, 2-cyano-N-[5-(3-fluorophenoxy)-2-pyridyl]-2-methyl-propanamide], the figure is 398 nM.

`C[C@H](O)CN(C)C(=O)Nc1ccc(-c2cc(F)cc(F)c2)cn1` [Compound E191, 3-[5-(3,5-difluorophenyl)-2-pyridyl]-1-[(2S)-2-hydroxypropyl]-1-methyl-urea]: the IC50 was 2510 nM. As for `CC1(C)CC1C(=O)Nc1ccc(Oc2ccc(C#N)cc2)cn1` (stereo not shown) [Compound E057], the figure is 1260 nM; as for `CC1(C)CN(C(=O)Nc2ccc(Oc3ccc(F)c(F)c3)cn2)C1` [Compound E124], 3240 nM. As for `CCN(C[C@@H](O)C(F)(F)F)C(=O)Nc1ccc(Oc2ccc(C#N)cc2)cn1` [Compound E115], the figure is 8910 nM. As for `COCC(C)(C)C(=O)Nc1ccc(Oc2ccc(F)c(F)c2)cn1` [Compound E040], the figure is 501 nM; as for `CCN(C[C@@H](O)C(F)(F)F)C(=O)Nc1ccc(Oc2ccc(F)cc2F)cn1` [Compound E137], 2.09 nM.

Regarding `CC1(C)C(C(=O)Nc2ccc(Oc3cn[nH]c3)cn2)C1(C)C` [Compound E074], the IC50 was 257 nM. With `CC1(C)C(C(=O)Nc2ccc(-n3nccn3)cn2)C1(C)C` [Compound E089], the IC50 was 15.1 nM. For the molecule `CC1(C)OCCC1C(=O)Nc1ccc(Oc2ccc(F)c(F)c2)cn1` (stereo not shown) [Compound E068], the IC50 is 263 nM.

On to `Cc1nc(NC(=O)C2CC2(C)C)ccc1Oc1ccc(F)c(F)c1` (stereo not shown) [Compound E054], for which the IC50 is 158 nM. The same measure for `CC1(C)C(C(=O)Nc2ccc(-c3cnco3)cn2)C1(C)C` [Compound E273, 2,2,3,3-tetramethyl-N-(5-oxazol-5-yl-2-pyridyl)cyclopropanecarboxamide]: 661 nM. As for `Cc1nc(-c2ccc(NC(=O)C3C(C)(C)C3(C)C)nc2)no1` [Compound E272, 2,2,3,3-tetramethyl-N-[5-(5-methyl-1,2,4-oxadiazol-3-yl)-2-pyridyl]cyclopropanecarboxamide], the figure is 8.51 nM. Consider `C[C@H](O)CN(C)C(=O)Nc1ccc(Oc2cccc(F)c2)cn1` [Compound E103], for which the IC50 is 1580 nM.

For `CC1(C)C(C(=O)Nc2ccc(Oc3cc(F)cc(C#N)c3)cn2)C1(C)C` [Compound E042], the IC50 is 3.16 nM. As for `CCN(C[C@@H](O)C(F)(F)F)C(=O)Nc1cnc(Oc2ccc(F)cc2C#N)cn1` [Compound E254], the figure is 30.9 nM. As for `CN(C[C@@](C)(O)C(F)(F)F)C(=O)Nc1cnc(Oc2cc(F)cc(F)c2)cn1` [Compound E238], the figure is 45.7 nM; as for `CCN(C[C@@H](O)C(F)(F)F)C(=O)Nc1cnc(Oc2ccc(C#N)cc2F)cn1` [Compound E256], 347 nM; as for `CC1(C)C(C(=O)Nc2ccc(C3=COCC3)cn2)C1(C)C` [Compound E187], 14.5 nM. Consider `CC1(C)CC1C(=O)Nc1ccc(-c2cc(F)ccc2F)cn1` (stereo not shown) [Compound E182], for which the IC50 was 25.1 nM.

For `CC(C)(O)COc1ccc(NC(=O)C2C(C)(C)C2(C)C)nc1` [Compound E080, N-[5-(2-hydroxy-2-methyl-propoxy)-2-pyridyl]-2,2,3,3-tetramethyl-cyclopropanecarboxamide], the IC50 is 4370 nM. As for `CC(C)C(=O)Nc1ccc(OC2CCCC2)cn1` [Compound E084], the figure is 1580 nM; as for `C[C@]1(C(=O)Nc2ccc(Oc3cc(F)ccc3F)cn2)CCCN1S(N)(=O)=O` [Compound E281], 81.3 nM.

As for `CCN(C[C@@H](O)C(F)(F)F)C(=O)Nc1ccc(-c2cc(F)cc(C#N)c2)cn1` [Compound E192], the IC50 was 1200 nM.

In the case of `CCN(C[C@@H](O)C(F)(F)F)C(=O)Nc1cc(Oc2ccc(F)cc2)ccn1` [Compound E155], the IC50 was 25.1 nM. As to `CC1(C)C(C(=O)Nc2ccc(Oc3ccc(C#N)cc3F)cn2)C1(C)C` [Compound E061], the IC50 was 20 nM. As for `CN(C)c1ccc(NC(=O)C2C(C)(C)C2(C)C)nc1` [Compound E201, N-[5-(dimethylamino)-2-pyridyl]-2,2,3,3-tetramethyl-cyclopropanecarboxamide], the figure is 162 nM; as for `CC1(C)C(C(=O)Nc2ccc(-n3cncn3)cn2)C1(C)C` [Compound E092], 8130 nM. With `O=C(Nc1ccc(Oc2ccc(F)c(F)c2)cn1)N1CCCC1` [Compound E105], the IC50 was 7940 nM. As for `CC1(C)CC1C(=O)Nc1cnc(Oc2ccc(F)c(F)c2)cn1` (stereo not shown) [Compound E225], the figure is 63.1 nM.

With `CCN(C[C@@H](O)C(F)(F)F)C(=O)Nc1cnc(Oc2ccc(F)cc2C(F)(F)F)cn1` [Compound E264], the IC50 is 295 nM. In the case of `CCN(C[C@@H](O)C(F)(F)F)C(=O)Nc1cc(Oc2ccccc2F)ccn1` [Compound E151], the IC50 is 3.63 nM. As for `CC1(C)C(C(=O)Nc2ccc(OCC(F)(F)F)cn2)C1(C)C` [Compound E093, 2,2,3,3-tetramethyl-N-[5-(2,2,2-trifluoroethoxy)-2-pyridyl]cyclopropanecarboxamide], the figure is 31.6 nM.

As to `N#CC1(C(=O)Nc2ccc(Oc3cc(F)cc(F)c3)cn2)CC1` [Compound E023], the IC50 is 3160 nM. As for `CCN(C[C@@H](O)C(F)(F)F)C(=O)Nc1cnc(Oc2ccc(C)cc2F)cn1` [Compound E263], the figure is 24.5 nM. With `CCN(C[C@@H](O)C(F)(F)F)C(=O)Nc1ccc(Oc2c(F)cccc2C#N)cn1` [Compound E136], the IC50 is 158 nM.

Consider `CC1(C)C(C(=O)Nc2ccc(I)cn2)C1(C)C` [Compound E200, N-(5-iodo-2-pyridyl)-2,2,3,3-tetramethyl-cyclopropanecarboxamide], for which the IC50 is 14.8 nM. `CC1(C)CCN1C(=O)Nc1ccc(Oc2ccc(F)c(F)c2)cn1` [Compound E125]: the IC50 is 468 nM. The same measure for `CC(C)(CO)C(=O)Nc1ccc(Oc2cccc(F)c2)cn1` [Compound E014]: 3980 nM; for `CCN(C[C@@H](O)C(F)(F)F)C(=O)Nc1cnc(Oc2cccc(F)c2F)cn1` [Compound E239]: 6.61 nM; for `CC1(C)C(C(=O)Nc2cnc(Oc3cc(F)cc(C#N)c3)cn2)C1(C)C` [Compound E223]: 31.6 nM.
